This is an account of results in patent US12338287B2, “Treatment of cancer using a CD33 chimeric antigen receptor” (Novartis AG, priority 2014, dated 2025).

Read-outs that look alike come from different tables or passages of the source. Where only a bound is given, the exact number is not on record here.

The subject of series [1] is huCART19 cells co-cultured with Nalm-6. Nature of the series: Effect of RAD001 on CART proliferation, 4 day co-culture. The class given is cell-based, human. How it is done: To evaluate the functionality of CARTs, the T cells are thawed and counted, and viability is assessed by Cellometer. The number of CAR-positive cells in each culture is normalized using non-transduced T cells (UTD). The impact of RAD001 on CARTs was tested in titrations with RAD001, starting at 50 nM. The target cell line used in all co-culture experiments is Nalm-6, a human pre-B cell acute lymphoblastic leukemia (ALL) cell line expressing CD19 and transduced to express luciferase.
For measuring the proliferation of CARTs, T cells are cultured with target cells at a ratio of 1:1. The assay is run for 4 days, when cells are stained for CD3, CD4, CD8 and CAR expression. The number of T cells is assessed by flow cytometry using counting beads as reference.

Series [2] in a line: RAD001 PK analysis in tumor bearing mice. Format: in vivo, NSG mice. As to conditions: for concentration at 24 h: NSG, mouse, whole blood. Here is the method:
(§1) RAD001 dosing: A concentrated micro-emulsion of 50 mg equal to 1 mg RAD001 was formulated and then resuspended in D5W (dextrose 5% in water) at the time of dosing. Mice were orally dosed daily (via oral gavage) with 200 μl of the desired doses of RAD001.
PK analysis: Mice were dosed daily with RAD001 starting 7 days post tumor implantation. Dosing groups were as follows: 0.3 mg/kg, 1 mg/kg, 3 mg/kg, and 10 mg/kg. Mice were bled on days 0 and 14 following the first and last dose of RAD001, at the following time points for PK analysis: 15 minutes, 30 minutes, 1 hour, 2 hours, 4 hours, 8 hours, 12 hours, and 24 hours.

A further series concerns NALM6-luc tumors. Put plainly: RAD001 alone on NALM6-luc tumor growth. Format: in vivo, NSG mice. As to conditions: daily oral dosing of RAD001 alone; FIG. 55. How it is done: NALM6-luc cells: The NALM6 human acute lymphoblastic leukemia (ALL) cell line was developed from the peripheral blood of a patient with relapsed ALL. The cells were then tagged with firefly luciferase. These suspension cells grow in RPMI supplemented with 10% heat inactivated fetal bovine serum.
Mice: 6 week old NSG (NOD.Cg-Prkdc^scidIl2rg^tmIWjl/SzJ) mice were received from the Jackson Laboratory (stock number 005557).
Tumor implantation: NALM6-luc cells were grown and expanded in vitro in RPMI supplemented with 10% heat inactivated fetal bovine serum. The cells were then transferred to a 15 ml conical tube and washed twice with cold sterile PBS. NALM6-luc cells were then counted and resuspended at a concentration of 10×10^6 cells per milliliter of PBS. The cells were placed on ice and immediately (within one hour) implanted in the mice. NALM6-luc cells were injected intravenously via the tail vein in a 100 μl volume, for a total of 1×10^6 cells per mouse.
as §1

The test system of series [3] is CAR-expressing, transduced T cells. Put plainly: CART proliferation in co-culture with Nalm-6 cells in presence of RAD001. The class given is cell-based. As to conditions: CARTs co-cultured with Nalm-6 cells, different concentrations of RAD001, 4 days. How it is done:
CARTs were co-cultured with Nalm-6 cells in the presence of different concentrations of RAD001. The number of CAR-positive CD3-positive T cells (black) and total T cells (gray) was assessed after 4 days of co-culture.

Series [4] concerns humanized CD19 CART cells. Put plainly: In vivo proliferation of humanized CD19 CART cells with and without RAD001. As to conditions: 0.003 mg/kg daily with huCTL019; CD4+ and CD8+ CAR T cells. How it is done: FIGS. 57A and 57B show in vivo proliferation of humanized CD19 CART cells with and without RAD001 dosing. […] Circles denote PBS; squares denote huCTL019; triangles denote huCTL019 with 3 mg/kg RAD001; inverted triangles denote huCTL019 with 0.3 mg/kg RAD001; diamonds denote huCTL019 with 0.03 mg/kg RAD001; and circles denote huCTL019 with 0.003 mg/kg RAD001.

In the next series the test system is huCAR19 CAR T cells. Put plainly: CAR T cell expansion in vivo with RAD001 (FACS). Also noted: species or system NSG mice. To be noted: lowest doses of RAD001, daily oral; FIG. 57. Here is the method: CAR T cell dosing: Mice were administered 5×10^6 CAR T cells 7 days after tumor implantation. Cells were partially thawed in a 37 degree Celsius water bath and then completely thawed by the addition of 1 ml of cold sterile PBS to the tube containing the cells. The thawed cells were transferred to a 15 ml falcon tube and adjusted to a final volume of 10 mls with PBS. The cells were washed twice at 1000 rpm for 10 minutes each time and then counted on a hemocytometer. T cells were then resuspended at a concentration of 50×10^6 CAR T cells per ml of cold PBS and kept on ice until the mice were dosed. The mice were injected intravenously via the tail vein with 100 μl of the CAR T cells for a dose of 5×10^6 CAR T cells per mouse. Eight mice per group were treated either with 100 μl of PBS alone (PBS), or humanized CD19 CAR T cells.
as §1
Based on these doses, huCAR19 CAR T cells were dosed with and without RAD001 to determine the proliferative ability of these cells. The highest dose used was 3 mg/kg based on the levels of RAD001 in the blood 24 hours after dosing. […] Mice were monitored via FACS for T cell expansion.

For another series, the target named is hsCD33 (Homo sapiens, UniProt P20138). Nature of the series: Cell surface scFv on JNL cells detected with recombinant Fc-tagged hsCD33. The class given is binding. As to conditions: recombinant Fc-tagged hsCD33, PE secondary antibody; relative to GFP or CD19 scFv JNL cells. Here is the method: FIG. 27 is an image depicting the cell surface expression of scFvs on a Jurkat T cell line, which contains a luciferase reporter driven by an NFAT-regulated promoter (termed JNL cells). JNL cells were transduced with a lentiviral vector expressing a cDNA encoding GFP, a scFv that binds to CD19, or cDNAs that encode an scFv, which was raised against hsCD33. The cell surface expression of individual scFv's on JNLs was detected by incubating cells with recombinant Fc-tagged hsCD33 followed by incubation with an Fc-specific secondary antibody conjugated to phycoerythrin.
To depict the cell surface expression of scFv's on a Jurkat T cell line, which contains a luciferase reporter driven by an NFAT-regulated promoter (termed JNL cells), JNL cells were transduced with a lentiviral vector expressing a cDNA encoding GFP, an scFv that binds to CD19, or cDNAs that encode an scFv, which was raised against hsCD33 (FIG. 27). The cell surface expression of individual scFv's on JNLs was detected by incubating cells with recombinant Fc-tagged hsCD33 followed by incubation with an Fc-specific secondary antibody conjugated to phycoerythrin.

The subject of a further series is protein L. Put plainly: Protein L binding of scFv on JNL cells. To be noted: data not shown.

hsCD33, sequence (P20138 18-259 limits assumed): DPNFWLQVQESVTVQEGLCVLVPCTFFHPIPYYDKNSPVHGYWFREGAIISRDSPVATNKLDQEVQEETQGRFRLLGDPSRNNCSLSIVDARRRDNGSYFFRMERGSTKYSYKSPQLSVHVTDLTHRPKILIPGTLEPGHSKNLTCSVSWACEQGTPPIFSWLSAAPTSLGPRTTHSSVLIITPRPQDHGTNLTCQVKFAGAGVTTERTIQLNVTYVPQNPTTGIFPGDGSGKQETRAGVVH

In the case of `CO[C@H]1C[C@@H]2CC[C@@H](C)[C@@](O)(O2)C(=O)C(=O)N2CCCC[C@H]2C(=O)O[C@H]([C@H](C)C[C@@H]2CC[C@@H](OCCO)[C@H](OC)C2)CC(=O)[C@H](C)/C=C(\C)[C@@H](O)[C@@H](OC)C(=O)[C@H](C)C[C@H](C)/C=C/C=C/C=C/1C` [RAD001, (1R,9S,12S,15R,16E,18R,19R,21R,23 S,24E,26E,28E,30S,32S,35R)-1,18-dihydroxy-12-{(1R)-2-[(1 S,3R,4R)-4-(2-hydroxyethoxy)-3-methoxycyclohexyl]-1-methylethyl}-19,30-dimethoxy-15,17,21,23,29,35-hexamethyl-11,36-dioxa-4-aza-tricyclo[30.3.1.04,9]hexatriaconta-16,24,26,28-tetraene-2,3,10,14,20-pentaone], the “Proliferation of huCART19 cells” value in series [1] (0.0032 and 0.016 nM RAD001, 4 day co-culture with Nalm-6, FIG. 54) is reported as “proliferation was higher than observed without the addition of RAD001”. Also, the “RAD001 concentration at which huCART19 cells expanded” value in series [1] (4 day co-culture with Nalm-6) is “less than 0.016 nM”. The concentration at 24 h in series [2] (oral, 0.3 mg/kg, 24 hours after the final dose of RAD001, read-out: Concentration of RAD001) was more than 10 nM; in series [2] (24 hours after dosing, 0.3 mg/kg oral, day 0 and day 14, read-out: RAD001 concentrations in the blood), more than 10 nM. Moreover, in series [2] (tumor bearing mice, FIGS. 56A, 56B), the “Stability in the blood” value is “fairly stable in the blood”. Also, the “Growth of NALM6-luc tumors” value in the series with NALM6-luc tumors is reported as “did not have an impact on the growth of NALM6-luc tumors”. In addition, in series [3], the “Proliferation of CAR-expressing, transduced T cells” value is given as “enhanced by low doses of RAD001”. In addition, in series [4], the “CAR T cell proliferation in vivo” value is reported as “enhancement in CAR T cell proliferation, above the normal level of huCAR19 proliferation”. The “Proliferation of the CAR T cells in vivo” value in the series on huCAR19 CAR T cells is given as “enhanced proliferation of the CAR T cells”.

B1: CD33-8: fully human anti-CD33 scFv CAR with 4-1BB and CD3zeta; full CAR SEQ ID NO: 55, scFv SEQ ID NO: 46 (protein)
chain: MALPVTALLLPLALLLHAARPQVQLVQSGAEVKKPGASVRVSCKASGYMFTDFFIHWVRQAPGQGLEWMGWINPNSGVTKYAQKFQGRVTMTRNTSISTAYMELSSLRSEDTAVYYCATWYSSGWYGIANIWGQGTMVTVSSASGGGGSGGGGSGGGGSDIQLTQSPSSLSASVGDRVTITCQASHDISNYLHWYQQKPGKAPKLLIYDASNLETGVPSRFTGSGSGTDFTLTIRSLQPEDVAAYYCQQSDDLPHTFGQGTKVDIKTTTPAPRPPTPAPTIASQPLSLRPEACRPAAGGAVHTRGLDFACDIYIWAPLAGTCGVLLLSLVITLYCKRGRKKLLYIFKQPFMRPVQTTQEEDGCSCRFPEEEEGGCELRVKFSRSADAPAYKQGQNQLYNELNLGRREEYDVLDKRRGRDPEMGGKPRRKNPQEGLYNELQKDKMAEAYSEIGMKGERRRGKGHDGLYQGLSTATKDTYDALHMQALPPR
With B1, in the series with hsCD33, the “Binding to hsCD33 (cell surface scFv on JNL cells)” value is “lacked appreciable binding to either hsCD33 or protein L”. Also, the “Binding to protein L” value in the series with protein L is on record as “lacked appreciable binding to either hsCD33 or protein L”.
